Read-outs that look alike come from different tables or passages of the source.
Key:
[1] = target: T1, human BRD4 bromodomain II (Homo sapiens, UniProt O60885); test: Bromodomain binding assay (AlphaScreen), BRD4 BDII
T1 construct: human BRD4 bromodomain II [based on Genbank NM_058243, residues 349-460]; host or cells: E. coli
Outline: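 Read-out is AlphaScreen signal (ex 680 nm, em 520-620 nm) from streptavidin donor beads on a biotinylated acetylated histone H4 (aa 1-21) peptide and nickel acceptor beads on the His6-tagged bromodomain. IC50 values come from curve fits of percentage peptide binding against compound concentration.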

[2] = tested on: human SKM-1 acute myeloid leukemia cells; test: SKM-1 antiproliferation cell-based assay (ATPlite); conditions: Homo sapiens
Outline: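 Log-phase cells in RPMI 1640/15% FBS were seeded at 34722 cells/mL and exposed for 4 days to nine-concentration DMSO serial dilutions in triplicate. Viability was read as ATP luminescence (ATPlite 1step), and IC50 values came from variable-slope non-linear regression.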

[3] = BRD4 BDII AlphaScreen assay, read-out: BRD4 BD2 IC50
[4] = SKM-1, SKM-1 antiproliferation assay

Row | IC50 [1, 3] [nM] | GI50 [2, 4] [nM] | IC50 ([1]; AlphaScreen assay, Table C2, read-out: BRD4 BDII IC50) [nM] | GI50 ([2]; SKM-1, 96 h, SKM-1 antiproliferation assay, 4 days, Table C2) [nM] | Compound
1 | 1 to 10 | 0.3 to 30 |  |  | Cn1ccn(-c2ccc(-c3cc(Cl)cc(-c4cccc(N5CCN(C(C)(C)C)CC5)c4)c3O)cc2Cl)c1=O [Example 1024, 1-(3″-(4-(tert-butyl)piperazin-1-yl)-3,5′-dichloro-2′-hydroxy-[1,1′:3′,1″-terphenyl]-4-yl)-3-methyl-1H-imidazol-2(3H)-one]
2 | 1 to 10 | 300 to 3000 |  |  | Cn1ccn(-c2ccc(-c3cc(C(F)(F)F)cc(-c4cccc(N5CCN(C(C)(C)C)CC5)c4)c3O)cc2Cl)c1=O [Example 1025, 1-(3″-(4-(tert-butyl)piperazin-1-yl)-3-chloro-2′-hydroxy-5′-(trifluoromethyl)-[1,1′:3′,1″-terphenyl]-4-yl)-3-methyl-1H-imidazol-2(3H)-one]
3 | 0.01 to 1 | 0.3 to 30 |  |  | Cc1cc(-c2ccc(-n3ccn(C)c3=O)c(Cl)c2)c(O)c(-c2cc(F)c(F)c(N3CCN(C(C)(C)C)CC3)c2)n1 [Example 1026, 1-(4-(2-(3-(4-(tert-butyl)piperazin-1-yl)-4,5-difluorophenyl)-3-hydroxy-6-methylpyridin-4-yl)-2-chlorophenyl)-3-methyl-1H-imidazol-2(3H)-one]
4 | 0.01 to 1 | 0.3 to 30 |  |  | Cc1cc(-c2ccc(-n3ccn(C)c3=O)c(Cl)c2)c(O)c(-c2cc(N3CCN(C(C)(C)C)CC3)cc(F)c2F)n1 [Example 1027, 1-(4-(2-(5-(4-(tert-butyl)piperazin-1-yl)-2,3-difluorophenyl)-3-hydroxy-6-methylpyridin-4-yl)-2-chlorophenyl)-3-methyl-1H-imidazol-2(3H)-one]
5 | 1 to 10 | 0.3 to 30 |  |  | COc1cc(-c2ccc(-n3ccn(C)c3=O)c(Cl)c2)c(O)c(-c2cccc(N3CCN(C(C)(C)C)CC3)c2)n1 [Example 1028, 1-(4-(2-(3-(4-(tert-Butyl)piperazin-1-yl)phenyl)-3-hydroxy-6-methoxypyridin-4-yl)-2-chlorophenyl)-3-methyl-1H-imidazol-2(3H)-one]
6 | 0.01 to 1 | 0.3 to 30 |  |  | Cn1ccn(-c2ccc(-c3cc(F)nc(-c4cccc(N5CCN(C(C)(C)C)CC5)c4)c3O)cc2Cl)c1=O [Example 1029, 1-(4-(2-(3-(4-(tert-Butyl)piperazin-1-yl)phenyl)-6-fluoro-3-hydroxypyridin-4-yl)-2-chlorophenyl)-3-methyl-1H-imidazol-2(3H)-one]
7 | 10 to 100 | 300 to 3000 |  |  | Cn1cc(-c2cccc(N3CCN(C(C)(C)C)CC3)c2)c(O)c(-c2ccc(-n3ccn(C)c3=O)c(Cl)c2)c1=O [Example 1030, 5-(3-(4-(tert-Butyl)piperazin-1-yl)phenyl)-3-(3-chloro-4-(3-methyl-2-oxo-2,3-dihydro-1H-imidazol-1-yl)phenyl)-4-hydroxy-1-methylpyridin-2(1H)-one]
8 | 1 to 10 | 30 to 300 |  |  | CNc1cc(-c2ccc(-n3ccn(C)c3=O)c(Cl)c2)c(O)c(-c2cccc(N3CCN(C(C)(C)C)CC3)c2)n1 [Example 1031, 1-(4-(2-(3-(4-(tert-Butyl)piperazin-1-yl)phenyl)-3-hydroxy-6-(methylamino)pyridin-4-yl)-2-chlorophenyl)-3-methyl-1H-imidazol-2(3H)-one]
9 | 0.01 to 1 | 0.3 to 30 |  |  | Cc1cc(-c2ccc(-n3ccn(C)c3=O)c(Cl)c2)c(O)c(-c2ccnc(N3CCC4(CCC(=O)N4)C3)c2)n1 (centres unmarked) [Example 1032, 7-(4-(3-chloro-4-(3-methyl-2-oxo-2,3-dihydro-1H-imidazol-1-yl)phenyl)-3-hydroxy-6-methyl-[2,4′-bipyridin]-2′'-yl)-1,7-diazaspiro[4.4]nonan-2-one]
10 | 10 to 100 | 30 to 300 |  |  | Cc1cc(-c2ccc(-n3cc[nH]c3=O)c(Cl)c2)c(O)c(-c2cccc(N3CCN(C(C)(C)C)CC3)c2)n1 [Example 1035, 1-(4-(2-(3-(4-(tert-butyl)piperazin-1-yl)phenyl)-3-hydroxy-6-methylpyridin-4-yl)-2-chlorophenyl)-1,3-dihydro-2H-imidazol-2-one]
11 | 1 to 10 | 30 to 300 |  |  | Cc1cc(-c2ccc(-n3ccn(C)c3=O)c(Cl)c2)c(O)c(-c2ccnc(N3CC(F)(F)[C@@](C)(O)C3)c2)n1 [Example 1036, (S)-1-(2-chloro-4-(2′-(3,3-difluoro-4-hydroxy-4-methylpyrrolidin-1-yl)-3-hydroxy-6-methyl-[2,4′-bipyridin]-4-yl)phenyl)-3-methyl-1,3-dihydro-2H-imidazol-2-one]
12 | 1 to 10 | 0.3 to 30 |  |  | Cc1cc(-c2ccc(-n3ccn(C)c3=O)c(Cl)c2)c(O)c(-c2ccnc(N3CC(F)(F)[C@](C)(O)C3)c2)n1 [Example 1037, (R)-1-(2-chloro-4-(2′-(3,3-difluoro-4-hydroxy-4-methylpyrrolidin-1-yl)-3-hydroxy-6-methyl-[2,4′-bipyridin]-4-yl)phenyl)-3-methyl-1,3-dihydro-2H-imidazol-2-one]
13 | 10 to 100 | 30 to 300 |  |  | CC(C)(C)N1CCN(c2cccc(-c3nccc(-c4ccc(-n5cc[nH]c5=O)c(Cl)c4)c3O)c2)CC1 [Example 1038, 1-(4-(2-(3-(4-(tert-butyl)piperazin-1-yl)phenyl)-3-hydroxypyridin-4-yl)-2-chlorophenyl)-1H-imidazol-2(3H)-one]
14 | 10 to 100 | 300 to 3000 |  |  | Cn1ccn(-c2ccc(-c3cc(=O)[nH]c(-c4cccc(N5CCN(C(C)(C)C)CC5)c4)c3O)cc2Cl)c1=O [Example 1040, 6-(3-(4-(tert-Butyl)piperazin-1-yl)phenyl)-4-(3-chloro-4-(3-methyl-2-oxo-2,3-dihydro-1H-imidazol-1-yl)phenyl)-5-hydroxypyridin-2(1H)-one]
15 |  |  | 10 to 100 | 300 to 3000 | CN1CCN(c2ccc(-c3cc(F)cc(-c4ccc(OC5CCNCC5)nc4)c3O)cc2Cl)C1=O [compound 446, 1-(3-chloro-5′-fluoro-2′-hydroxy-3′-(6-(piperidin-4-yloxy)pyridin-3-yl)-[1,1′-biphenyl]-4-yl)-3-methylimidazolidin-2-one]

Row | Compound | IC50 [1, 3] [nM] | GI50 [2, 4] [nM] | IC50 ([1]; AlphaScreen assay, Table C2, read-out: BRD4 BDII IC50) [nM] | GI50 ([2]; SKM-1, 96 h, SKM-1 antiproliferation assay, 4 days, Table C2) [nM]
16 | COc1ncc(-c2nc(C)cc(-c3ccc(-n4ccn(C)c4=O)c(Cl)c3)c2O)cc1N1CC2CCC(C1)N2C(C)C [Example 1039, 1-(2-chloro-4-(3-hydroxy-5′-(8-isopropyl-3,8-diazabicyclo[3.2.1]octan-3-yl)-6′-methoxy-6-methyl-[2,3′-bipyridin]-4-yl)phenyl)-3-methyl-1H-imidazol-2(3H)-one] | 1 to 10 | 0.3 to 30 |  | 

— patent US20250179059A1 (The Regents of the University of California, priority 2021, published 2025)
